Experimental data published in patent US11266686B2, “Metal complexes and methods of treatment” (PROCYPRA THERAPEUTICS LLC, priority 2013, dated 2022).

Key:
MPTP-lesioned mice = assay: Neutral Red positive cell count in substantia nigra of MPTP-lesioned mice; format: in vivo, mouse; details: 30 mg/kg API oral for 21 days
Description: CuATSM:gluconic acid (1:2) was prepared according to the method of EXAMPLE 7. CuATSM:saccharin (1:2) was prepared according to the methods of EXAMPLE 3. CuATSM was suspended in “Standard Suspension Vehicle” (SSV), consisting of 0.9% (w/v) NaCl, 0.5% (w/v) sodium carboxymethylcellulose, 0.5% (v/v) benzyl alcohol, and 0.4% (v/v) Tween 80 in deionized water. CuATSM:gluconic acid (1:2) and CuATSM:saccharin (1:2) were suspended in sterile water. Samples were prepared by adding one of the compounds to the liquid vehicle (water or SSV) in a vial and then vortexing the mixture for 3 min with a stir bar inside.
MPTP mouse models of PD are described by (Przedborski & Vila, 2003). […] Behavioral testing via the wire test and tissue harvesting followed.
Neuroprotective effects of the CuATSM and NCDs were determined by cell count.
Following the wire pull-up time tests, the mice were anesthetized, blood samples were then obtained for plasma studies, and the mice were then sacrificed by an overdose of anesthetic. Mice were then immediately perfused with cold PBS. The right hemisphere of the brain was placed in 5 ml of chilled 4% wt/vol paraformaldehyde (Sigma-Aldrich) in 0.1 M phosphate buffer overnight at 4° C. and pH 7.4. The brains were then removed and left at 4° C. overnight in 30% wt/vol sucrose (domestic grade) in PBS before being frozen and sectioned on a cryostat. Brains were cut coronally into 30-μm sections in a 1:3 series for the substantia nigra pars compacta (SNpc).
The resulting sections were stained with Neutral Red (Niss1 stain; Sigma-Aldrich). Just prior to immunostaining, the frozen sections are fixed again for 5 min in order to ensure that the brain sections are properly fixed to the glass slide. SNpc nuclei from both normal and lesioned animals were examined. […]
The total number of neurons in the substania nigra was estimated using fractionator sampling (Finkelstein et al., 2000; Stanic et al., 2003; West & Gundersen, 1990). […] The entire SNpc was sampled at every third section and analyzed in a series having a random offset for each brain. […]

[1] = Pharmacokinetics in mice after oral administration, plasma and brain by LC/MS/MS; details: 30 mg/kg CuXTSM API oral; for Brain AUC0-24h / Brain AUC0-inf / Brain Cmax / Brain Tmax / Brain t½ (number of time points): mouse brain; for Brain t½ (number of time points) / Plasma t½ (number of time points): bracket = number of time points; for Plasma Ke / Plasma MRT / Plasma AUC0-24h / Plasma AUC0-inf / Plasma Cmax / Plasma Tmax / Plasma t½ (number of time points): mouse plasma; for Plasma AUC0-24h / Plasma AUC0-inf / Plasma Cmax / Plasma Tmax: CuATSM in SSV, NCDs in water; for Brain:plasma-ratio (AUC-based) / Brain:plasma-ratio (Cmax-based): mouse
Description: CuATSM was suspended in “Standard Suspension Vehicle” (SSV), consisting of 0.9% (w/v) NaCl, 0.5% (w/v) sodium carboxymethylcellulose, 0.5% (v/v) benzyl alcohol, and 0.4% (v/v) Tween 80 in deionized water. All other test compounds were suspended in sterile water. Samples were prepared by adding one of the compounds to the liquid vehicle (water or SSV) in a vial and then vortexing the mixture for 3 min with a stir bar inside. If the powdered sample was not completely wetted or not completely suspended, the sample was vortexed for another minute. If wetting was still incomplete, the vial was sonicated until a fully wetted suspension was obtained. Between doses, the sample was stirred on medium speed and then vortexed for an additional 20 s immediately before the next dose was removed from the vial. All dosing was completed from a single preparation of the suspension within 60 min of adding the compound to water or SSV.
Mice were deprived of pelleted food overnight, during which time 10% dextrose, as Dextroput, was provided in tap water, after which the test items were administrated orally by gavage in water or SSV. […] The blood samples were kept on ice after sampling and centrifuged at +4° C., 1800×g for 5 min to prepare plasma. Plasma samples were extracted and transferred into pre-labelled Eppendorf test tubes (50 μl exact in one vial, and the remaining in a second vial) and frozen at −20° C. The samples were transported on dry ice to the analysis site. Following blood sampling, mice were euthanized by cervical dislocation, and then brains were collected through opened skulls. The brains were weighed and placed in test tubes and placed on water ice. Phosphate-buffered saline (PBS, pH 7.4), 4 ml per 1 g of brain tissue, was added to the test tube and brains were homogenized by using Ultra-Turrax T25 homogenizer/S25N-10G (Setting 2, 9500 rpm, approximately 10 s). The homogenate was frozen at −20° C. immediately after homogenization. The samples were transported on dry ice to the analysis site.
Dosed mice were studied in triplicate for each of the seven time points, totaling 21 mice dosed for each studied compound. Plasma samples and brain homogenates from four untreated animals were also obtained. The plasma samples were thawed at room temperature (RT), mixed with 2-fold volume of acetonitrile, shaken and centrifuged for 10 min at 13 000×g (Heraeus Pico 17 centrifuge), after which supernatants were transferred into glass vials. The brain homogenate samples were mixed with 2-fold volume of acetonitrile:methanol, shaken, ultrasonicated for 20 min, and centrifuged for 10 min at 13 000×g (Heraeus Pico 17 centrifuge), after which supernatants were transferred into glass vials. […] Quality control (QC) samples were prepared for concentrations 10, 100 and 1000 ng/ml in plasma or brain homogenates.
Elution was with gradient of 0.5% formic acid/acetonitrile (99:1) increased step-wise to (5:95).
The pharmacokinetic parameters for study compounds in plasma and brain were calculated using standard non-compartmental methods. The elimination phase half-life (t½) was calculated by least-squares regression analysis of the terminal linear part of the log concentration-time curve. […] The maximum concentration (Cmax) and the time to Cmax (Tmax) were derived directly from the concentration data. Mean Residence Time, MRT, and elimination rate constant, Ke, were also calculated from the concentration vs. time data of plasma samples.

SMILES	neurons in the substania nigra as compared to SSV control (MPTP-lesioned mice)	Brain AUC0-24h [1] [ng·min/g]	Brain AUC0-inf [1] [ng·min/g]	Brain Cmax [1] [ng/g]	Brain Tmax [1] [h]	Brain t½ (number of time points) [1]	Plasma Ke [1] [min⁻¹]	Plasma MRT [1] [h]	Plasma AUC0-24h [1]	Plasma AUC0-inf [1] [ng·min/mL]	Plasma Cmax [1] [ng/mL]	Plasma Tmax [1] [h]	Plasma t½ (number of time points) [1]	Brain:plasma-ratio (AUC-based) [1]	Brain:plasma-ratio (Cmax-based) [1]
CNC1=NN=C(C)C(C)=NN=C(NC)[S][Cu][S]1 [CuATSM, Copper(II) diacetyl-di(N4-methyl)thiosemicarbazone, reference compound]	significant (all p<0.01 or less) recovery of the neurons	10944	13843	28.4	1	199 (3) min	0.0035	5.25	9637 ng·min/mL	9698	22.2	2	196 (4) min	1.1	1.3
CNC1=NN=C(C)C(C)=NN=C(NC)[S][Cu][S]1.O=C(O)C(O)C(O)C(O)C(O)CO.O=C(O)C(O)C(O)C(O)C(O)CO [CuATSM:gluconic acid (1:2)]	significant (all p<0.01 or less) recovery of the neurons	71554	73544	133	4	261 (3) min	0.0028	5.95	25 163 min*ng/mL	25696	36.5	4	252 (3) min	2.8	3.6
CNC1=NN=C(C)C(C)=NN=C(NC)[S][Cu][S]1.O=C1NS(=O)(=O)c2ccccc21.O=C1NS(=O)(=O)c2ccccc21 [CuATSM:saccharin (1:2)]	significant (all p<0.01 or less) recovery of the neurons	30643	30979	71.8	0.25	202 (2) min	0.0040	6.25	20 333 min*ng/mL	20436	29.0	2	170 (2) min	1.5	2.5
